Results from patent US5677328A, “Ethylamino carbazole melatonergic agents” (Bristol-Myers Squibb Company, priority 1996, dated 1997).

Test system: circadian rhythms in rats
Assay: not given
Details: exogenous melatonin administration, Cassone et al. 1986; cited from earlier work

| SMILES | synchronization of circadian rhythms |
| --- | --- |
| COc1ccc2[nH]cc(CCNC(C)=O)c2c1 [melatonin, N-acetyl-5-methoxytryptamine] | found to synchronize circadian rhythms in rats |

Test system: not given
Assay: not given
Details: cited from earlier work

| SMILES | oral bioavailability |
| --- | --- |
| COc1ccc2[nH]cc(CCNC(C)=O)c2c1 [melatonin, N-acetyl-5-methoxytryptamine] | often low and variable |

Target: T1, human ML1a (Homo sapiens, UniProt P48039)
T1 construct: expressed in transfected cells; host or cells: COS-1 cells (transient, DEAE-dextran), membrane homogenate
T1 sequence (P48039 whole entry): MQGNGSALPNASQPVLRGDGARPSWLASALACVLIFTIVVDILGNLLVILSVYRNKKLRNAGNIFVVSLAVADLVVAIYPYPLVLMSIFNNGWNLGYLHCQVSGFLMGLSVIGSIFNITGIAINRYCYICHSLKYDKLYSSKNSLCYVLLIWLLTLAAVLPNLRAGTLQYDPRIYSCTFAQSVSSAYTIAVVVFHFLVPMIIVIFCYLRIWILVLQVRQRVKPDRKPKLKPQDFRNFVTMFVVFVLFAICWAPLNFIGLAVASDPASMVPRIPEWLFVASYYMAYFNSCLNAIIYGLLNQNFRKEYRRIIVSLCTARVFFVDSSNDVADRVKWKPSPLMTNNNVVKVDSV
Assay: Measurement of Melatonergic Binding (human ML1a binding assay, 2-[125I]-iodomelatonin, COS-1 cell membranes)
Details: 2-[125I]-iodomelatonin 100 pM, 37° C. for 1 hour
Procedure: Example 35 sets out the human ML1a binding assay used to test activity.
Measurement of Melatonergic Binding
(a) 50 mM Tris buffer containing 12.5mM MgCl2 and 2mM EDTA (pH 7.4 at 37° C.).
(b) Wash buffer: 20mM Tris base containing 2mM MgCl2 (pH 7.4 at room temperature).
(c) 6-Chloromelatonin (10^-5 M final concn.).
(d) 2-[^125 I]-iodomelatonin (100 pM final concn.). Source: NEN
2. Membrane preparation. The cDNA (human ML1A) was introduced into COS-1 cells by the DEAE-dextran method. Three days later, the media was removed, the plates washed with phosphate buffered saline, the cells removed using Hank's balanced salt solution and pelleted. The supernatant was discarded and the pellets frozen. For preparing membrane homogenates, pellets are thawed on ice, and resuspended in TME buffer, Tris base, MgCl2, EDTA (pH 7.4 at 37° C.), supplemented with aprotinin, leupeptin, and phenylmethlysulfonylfluoride. The cells were then homogenized using a dounce homogenizer, and centrifuged. The resulting pellet was resuspended with a dounce homogenizer in TME and frozen. On the day of assay, the small aliquot was thawed on ice and resuspended in TME buffer.
3. Incubation: 37° C. for 1 hour. Reaction is terminated by filtration.
The procedure was based on that disclosed in: Reppert, S. M., Weaver, D. R., and Ebisawa, R. (1994), Neuron, 13, 1177-1185 (1994).

| IC50 | SMILES |
| --- | --- |
| < 100 nM | COc1ccc2c3ccc(OC)cc3n(CCCNC(C)=O)c2c1 [Example 8, N-[3-(2,7-Dimethoxy-9H-carbazol-9-yl)propyl]acetamide] |
| < 100 nM | CCC(=O)NCCCn1c2cc(OC)ccc2c2ccc(OC)cc21 [Example 9, N-[3-(2,7-Dimethoxy-9H-carbazol-9-yl)propyl]propanamide] |
| < 100 nM | CCCC(=O)NCCCn1c2cc(OC)ccc2c2ccc(OC)cc21 [Example 10, N-[3-(2,7-Dimethoxy-9H-carbazol-9-yl)propyl]butanamide] |
| 100 to 250 nM | COc1ccc2c3ccc(OC)cc3n(CCCNC(=O)C(C)C)c2c1 [Example 11, N-[3-(2,7-Dimethoxy-9H-carbazol-9-yl)propyl]-2-methylpropanamide] |
| < 100 nM | CCCC(=O)NCCn1c2ccccc2c2ccc(OC)cc21 [Example 15, N-[2-(2-Methoxy-9H-carbazol-9-yl)ethyl]butanamide] |
| 100 to 250 nM | COc1ccc2c3ccccc3n(CCNC(=O)C3CC3)c2c1 [Example 17, N-[2-(2-Methoxy-9H-carbazol-9-yl)ethyl]cyclopropanecarboxamide] |
| 100 to 250 nM | CCCC(=O)NCCn1c2cc(OC)ccc2c2ccc(OC)cc21 [Example 18, N-[2-(2,7-Dimethoxy-9H-carbazol-9-yl)ethyl]butanamide] |
| 100 to 250 nM | COc1ccc2c3ccc(OC)cc3n(CCNC(=O)C(C)C)c2c1 [Example 19, N-[2-(2,7-Dimethoxy-9H-carbazol-9-yl)ethyl]-2-methylpropanamide] |
| < 100 nM | COc1ccc2c3ccc(OC)cc3n(CCNC(=O)C3CC3)c2c1 [Example 20, N-[2-(2,7-Dimethoxy-9H-carbazol-9-yl)ethyl]cyclopropanecarboxamide] |
| < 100 nM | COc1ccc2c3ccc(OC)cc3n(CCNC(=O)CSC)c2c1 [Example 21, N-[2-(2,7-Dimethoxy-9H-carbazol-9-yl)ethyl]methylthioacetamide] |
| ≥ 250 nM | COc1ccc2c3ccc(OC)cc3n(CCNC(=O)CS(C)(=O)=O)c2c1 [Example 22, N-[2-(2,7-Dimethoxy-9H-carbazol-9-yl)ethyl]-2-(methanesulfonyl)acetamide] |
| < 100 nM | CNC(=O)NCCn1c2cc(OC)ccc2c2ccc(OC)cc21 [Example 26, N-[2-(2,7-Dimethoxy-9H -carbazol-9-yl)ethyl]-N'-methylurea] |
| < 100 nM | CCNC(=O)NCCn1c2cc(OC)ccc2c2ccc(OC)cc21 [Example 27, N-Ethyl-N'-[2-(2,7-dimethoxy-9H-carbazol-9-yl)ethyl]urea] |
